Experimental data from the METLIN SMRT retention time set (Domingo-Almenara et al. 2019).

Assay: gradient 5% acetonitrile 3 min, to 50% in 2 min, to 85% in 15 min, held 3 min, 100 µL/min
Conditions: column: Zorbax Extend-C18 2.1 x 50 mm; eluents: water / acetonitrile, 0.1% formic acid
Summary of the method: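 Each retention time is based on an adduct peak selected computationally and verified by manual inspection. Measurements used HPLC–quadrupole time-of-flight mass spectrometry in positive and negative ionization mode on mixtures of ~100 pure standards. Chromatography ran on a Zorbax Extend-C18 column (2.1 × 50 mm, 1.8 μm) at 100 μL/min with water and acetonitrile, each containing 0.1% formic acid, and dead and dwell volumes of 40 μL and 900 μL.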

| RP-LC retention time | Structure (SMILES) |
| --- | --- |
| 799 s | CN(C)c1cccc(C(=O)N2CCN(C(=O)c3nnn4c3COC(c3ccccc3)C4)CC2)c1 (centres undefined) |
| 815 s | O=C(NCc1ccco1)C1CCN(S(=O)(=O)c2cc(C(=O)N3CCCCCC3)cs2)CC1 |
| 624 s | c1ccc(-n2ncc3cccnc32)cc1 |
| 1080 s | COc1ccc(NC(=O)c2nc(C(C)C)oc2C)cc1Cl |
| 645 s | Cc1cc(=O)n2c(-c3cccc(NC(=O)c4sc(C)nc4C)c3)csc2n1 |
| 797 s | CC(C)n1cnc2ccc(-c3noc(CCc4ccccc4)n3)cc21 |
| 874 s | O=C(c1ccc(Cl)cc1)N1CCCC(c2nnc(-c3ccccc3)o2)C1 (centres undefined) |
| 904 s | O=C(NC1CCCCCC1)C1CCCN(C(=O)c2ccc(Cl)cc2)C1 (centres undefined) |
| 668 s | CC1CCC(C(=O)NC(Cc2c[nH]c3ccccc23)C(=O)Nc2ccncc2)CC1 (centres undefined) |
| 1220 s | CN(C)c1nc(Nc2ccc3c(c2)OCO3)c2cnn(-c3ccccc3)c2n1 |
| 757 s | Cc1ccccc1Cn1c(CN2CCC(C(=O)N3CCCC3)CC2)cc2ccccc21 |
| 856 s | COc1ccc(NC(=O)c2cnc(-c3ccc(F)cc3)nc2-c2ccncc2)cc1 |
| 601 s | COCCNc1c(-c2ccccc2)nc2sc(C(=O)N3CCN(C)CC3)c(C)n12 |
| 1060 s | Cc1cc2nn(CC(=O)Nc3ccc(F)cc3F)c(=O)n2c(Nc2ccc(F)c(C)c2)n1 |
| 808 s | CCCCN1C(=O)C(CC(=O)NC2CCCC2)Sc2ncccc21 (centres undefined) |
| 732 s | CC(=O)c1cccc(NC(=O)N2CCN(Cc3ccccc3)c3ncccc32)c1 |
| 949 s | Cc1csc(NC(=O)CN2CCC3(CC2)NC(=O)N(Cc2ccc(Cl)cc2)C3=O)n1 |
| 912 s | CC(C)Cn1cc(CCNC(=O)Nc2ccc(F)c(Cl)c2)c2cccnc21 |
| 682 s | O=C(CSc1ccc(N2CCCC(C(=O)NC3CC3)C2)nn1)Nc1ccc(Cl)cc1 (centres undefined) |
| 649 s | CC(C)CCNC(=O)NCCc1cn(C)c2ncccc12 |
| 874 s | O=C(Nc1ccccc1F)C1COc2ccccc2C1 (centres undefined) |
| 703 s | CCCNC(=O)C1CCCN(c2nc3ncn(CC(=O)Nc4ccc(C)cc4C)c(=O)c3s2)C1 (centres undefined) |

| RP-LC retention time | Structure (SMILES) |
| --- | --- |
| 885 s | CCNC(=O)N1CCN(c2ccc(-c3noc(C4CC(=O)N(c5ccc(C)c(C)c5)C4)n3)cc2)CC1 (centres undefined) |
| 786 s | Cc1ccc(C(C)NC(=O)c2ccc3c(c2)nc2n3CCN(C(C)C)C2=O)c(C)c1 (centres undefined) |
| 573 s | CC(C)Cn1cc(NC(=O)N2CCN(c3ccccn3)CC2)c2ccccc2c1=O |
| 790 s | Cc1nc2nc(-c3ccc(Cl)cc3)nn2c(C)c1CC(=O)NC(C)C |
| 910 s | COC(=O)C1=CN(c2ccc(F)c(Cl)c2)c2ccccc2S1(=O)=O |
| 721 s | Cc1ccc2c(c1)c1nc3ccccc3nc1n2CC(=O)O |
| 880 s | COc1ccccc1-c1noc(Cn2c(=O)n(-c3ccccc3F)c(=O)c3sccc32)n1 |
| 1090 s | CCCn1cc(C(=O)NCCCOCC)c(S(=O)(=O)N2CCN(c3ccccc3Cl)CC2)n1 |
| 762 s | Cc1ccc(NC(=O)C2CCN(C(=O)C3Sc4ccccc4NC3=O)CC2)c(C)c1 (centres undefined) |
| 746 s | C=CCNC(=O)c1sc(Nc2ccc(Cl)cn2)nc1C |
| 646 s | O=C(c1ccc2ncnc(N3CCCC3)c2c1)N1CCN(c2ccccc2)CC1 |
| 1120 s | Cn1nnc2ccc(-c3noc(-c4cccc(Cl)c4)n3)cc21 |
| 756 s | CCc1nc(OCC(=O)NCc2ccccc2)c2ccccc2n1 |
| 1060 s | CCc1nc(-c2csc(S(=O)(=O)N3CCC(C(=O)Nc4ccc(Cl)cc4F)CC3)c2)no1 |
| 1000 s | O=C(CN1C(=O)CCCc2cc(S(=O)(=O)N3CCCCC3)ccc21)Nc1ccc(F)c(Cl)c1 |
| 608 s | COc1ccc(C(C)NC(=O)c2cn3c(n2)COCC3)cc1OC (centres undefined) |
| 526 s | CONC(=O)Cc1csc(Nc2cc(C)ccn2)n1 |
| 882 s | O=C(NC1CC1)c1cc(-c2cccc(F)c2)ns1 |
| 933 s | CCCn1c(=O)c(N2CCC(NC(=O)Nc3ccc4c(c3)OCCO4)CC2)nc2ccccc21 |
| 834 s | CCN1C(=O)c2cccnc2Sc2cc(NC(=O)c3ccccc3F)ccc21 |
| 853 s | Cc1ccsc1C(=O)N1CCN(c2ccc(=O)n(-c3cccc(Cl)c3)n2)CC1 |
| 690 s | Cc1ccc(-c2noc3ncnc(N4CCN(c5ccccn5)CC4)c23)cc1 |

| RP-LC retention time | Structure (SMILES) |
| --- | --- |
| 951 s | Cc1cc(NS(=O)(=O)c2ccc3c(c2)C(=O)N(C)c2ncccc2O3)ccc1F |
| 675 s | CCc1nnc(C2CN(C)CC23CCN(S(=O)(=O)c2ccc(C)c(Cl)c2)CC3)o1 (centres undefined) |
| 596 s | O=C(Nc1ccccc1)N1CCc2nnc(C3CC3)n2CC1 |
| 806 s | Cc1noc(C)c1S(=O)(=O)N1CCC(n2nc(-c3ccccc3)nc2C)C1 (centres undefined) |
| 592 s | COc1ccc(OC)c(-c2cc(C(=O)NCC#CCN3CCc4ccccc4C3)[nH]n2)c1 |
| 989 s | COc1ccccc1CCc1nc(C2CC(=O)N(C3CCCCC3)C2)no1 (centres undefined) |
| 681 s | Cc1cc(C(=O)Nc2ccc3c(c2)OCCO3)no1 |
| 744 s | CN(CC(=O)N1CCN(c2ccccc2)CC1)S(=O)(=O)c1c[nH]c(C(=O)N2CCCC2)c1 |
| 718 s | COc1ccccc1N1CCN(C(=O)Cn2nc(C(=O)N3CCOCC3)c3ccccc32)CC1 |
| 816 s | CN(CC1(C)CCOCC1)C(=O)COc1ccc(Cl)cc1 |
| 723 s | Cc1cccc(NC(=O)N2CCC3(CC2)NC(=O)c2ccccc2O3)c1 |
| 796 s | COc1ccc(OC)c(NC(=O)Cn2nc(N3CCOCC3)c3ccccc3c2=O)c1 |
| 572 s | O=C(O)Cn1ncc2ccccc2c1=O |
| 650 s | CCn1c(C2CC(=O)N(Cc3ccccc3)C2)nc2ccccc21 (centres undefined) |
| 915 s | CCn1cc(C(=O)NCc2ccc(F)cc2)c(S(=O)(=O)N2CCSCC2)n1 |
| 912 s | COc1ccc(OC)c(NC(=O)N2CCCC(C)(C(=O)NCc3ccccc3C)C2)c1 (centres undefined) |
| 778 s | Cc1cc(Cl)ccc1NC(=O)Cn1nc(C(=O)N2CCCCC2)c2ccccc21 |
| 743 s | Cc1ccc(Nc2c(-c3ccc(N(C)C)cc3)nc3ccccn23)cc1 |
| 877 s | Cc1cccc(S(=O)(=O)N2CCCC(OCc3nc(C)no3)C2)c1 (centres undefined) |
| 726 s | CCOc1ccc(N2CC(c3nnc(NC(=O)CCc4ccccc4)o3)CC2=O)cc1 (centres undefined) |
| 586 s | COc1ccc(C)c(N2C(=O)CC(N3CCC(C(N)=O)CC3)C2=O)c1 (centres undefined) |
| 666 s | CCCN(C)C(=O)COc1ccc(NC(=O)C2CC2)cn1 |

| RP-LC retention time | Structure (SMILES) |
| --- | --- |
| 957 s | COc1cc(NC(=O)CSc2cc(N3CCN(c4ccccc4OC)CC3)ncn2)cc(OC)c1 |
| 777 s | CN1CC(=O)N(CC(=O)Nc2ccc(OC(F)(F)F)cc2)c2ccccc2C1=O |
| 895 s | O=c1[nH]c2ccccc2nc1-c1cc(Cl)ccc1NS(=O)(=O)c1ccccc1 |
| 664 s | CC(=O)N1CCC(N2C(=O)C3(CCCC3)C2c2scnc2C)CC1 (centres undefined) |
| 911 s | Cc1ccc(NS(=O)(=O)c2cc3c(s2)CCN(C(=O)C2CCC2)C3)cc1F |
| 642 s | Cc1nnc(C2CCCN(C(=O)c3ccc(S(=O)(=O)N(C)C)cc3)C2)s1 (centres undefined) |
| 688 s | CN(Cc1nc2cc(C(=O)N3CCCC3)ccc2n1C)C(=O)Nc1ccc2c(c1)OCCO2 |
| 960 s | Cn1c(=O)c(N2CCCC(C(=O)NCCc3c[nH]c4ccc(Cl)cc34)C2)nc2ccccc21 (centres undefined) |
| 913 s | COc1ccc(OCc2nnc3sc(C4COc5ccccc5O4)nn23)cc1 (centres undefined) |
| 956 s | Cc1ccc(NC(=O)c2cnc3c(c2)c(=O)n(C)c(=O)n3-c2ccccc2)cc1F |
| 960 s | Cc1cnc(CCNS(=O)(=O)c2ccc(C#N)cc2)n1C1CC1 |
| 859 s | O=C(NCC1CCCO1)NC1CCN(c2nc3cccnc3n(Cc3ccccc3)c2=O)CC1 (centres undefined) |
| 675 s | CC1CCCCN1CCNC(=O)c1c2c(cn(-c3ccc(F)cc3)c1=O)C(=O)CC(C)(C)C2 (centres undefined) |
| 1060 s | Cc1ccc(-n2nc(N3CCCC(C(=O)NC(C)CCc4ccccc4)C3)ccc2=O)cc1Cl (centres undefined) |
| 993 s | CS(=O)(=O)N1CCCC1C(=O)Nc1nc(-c2cc(Cl)sc2Cl)cs1 (centres undefined) |
| 757 s | COc1ccc(NC(=O)CSc2cc(C)nc(-c3cnccn3)n2)cc1Cl |
| 662 s | COc1cc(Nc2c(C(=O)N3CCC(C)CC3)cnc3nc(C)ccc23)cc(OC)c1 |
| 892 s | Cc1ccc(Cl)cc1NC(=O)C1CCCN1S(=O)(=O)c1cc2c(cc1C)NC(=O)C(C)O2 (centres undefined) |
| 589 s | CCN1CCN(CCNC(=O)Cn2c(=O)c3cccn3c3ccc(F)cc32)CC1 |
| 931 s | Cc1ccc(C(=O)N2CCCn3nc(-c4ccc(Cl)cc4)cc3C2)s1 |
| 610 s | COCc1noc([C@@H]2CC(F)(F)CN2C(=O)c2cn(C)cn2)n1 |

| Structure (SMILES) | RP-LC retention time |
| --- | --- |
| O=C(Nc1cc(F)ccc1F)c1c(O)c2cccnc2n(Cc2ccccc2)c1=O | 1170 s |
| CCCn1cc(C(=O)NC2CCCC2)c2cccnc21 | 794 s |
